Data as given in PubChem BioAssay (NCI).
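Test compounds were applied to cells in 96-well plates for 48 hours at 5 doses. At the GI50, growth is halved. TGI denotes the concentration required for complete inhibition of growth.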

How the values were obtained:
Assay in all cases: DTP human tumour cell line panel, 48 h
IGROV1 ovarian = tested on: IGROV1 ovarian
U251 CNS = tested on: U251 CNS
M14 melanoma = tested on: M14 melanoma
HOP-92 NSCLC = tested on: HOP-92 NSCLC
RXF 393 renal = tested on: RXF 393 renal
SK-MEL-28 melanoma = tested on: SK-MEL-28 melanoma
MOLT-4 leukemia = tested on: MOLT-4 leukemia
OVCAR-5 ovarian = tested on: OVCAR-5 ovarian
OVCAR-8 ovarian = tested on: OVCAR-8 ovarian
SN12C renal = tested on: SN12C renal

COc1cccc(C2NC(=S)NC(C)=C2C(=O)Nc2ccc(Cl)c(Cl)c2)c1 (stereo not given)
GI50 (IGROV1 ovarian): 11.3 µM
TGI (IGROV1 ovarian): 28.5 µM
GI50 (U251 CNS): > 50 µM
TGI (U251 CNS): > 50 µM
GI50 (M14 melanoma): 10.3 µM
TGI (M14 melanoma): 19.3 µM
GI50 (HOP-92 NSCLC): 12.5 µM
TGI (HOP-92 NSCLC): 38.7 µM
GI50 (RXF 393 renal): 9.14 µM
TGI (RXF 393 renal): 22.3 µM
GI50 (SK-MEL-28 melanoma): 13.3 µM
TGI (SK-MEL-28 melanoma): 47.7 µM
GI50 (MOLT-4 leukemia): > 50 µM
TGI (MOLT-4 leukemia): > 50 µM
GI50 (OVCAR-5 ovarian): 28.7 µM
TGI (OVCAR-5 ovarian): > 50 µM
GI50 (OVCAR-8 ovarian): 12.4 µM
TGI (OVCAR-8 ovarian): 23.9 µM
GI50 (SN12C renal): 9.14 µM
TGI (SN12C renal): 17.1 µM

O=c1[nH]c2ccccc2n1-c1n[nH]c2ccccc12
GI50 (IGROV1 ovarian): 8.29 µM
TGI (IGROV1 ovarian): > 100 µM
GI50 (U251 CNS): 31.3 µM
TGI (U251 CNS): > 100 µM
GI50 (M14 melanoma): 29.2 µM
TGI (M14 melanoma): 88.2 µM
GI50 (HOP-92 NSCLC): 4.5 µM
TGI (HOP-92 NSCLC): 58.2 µM
GI50 (RXF 393 renal): 43.6 µM
TGI (RXF 393 renal): > 100 µM
GI50 (SK-MEL-28 melanoma): 38.8 µM
TGI (SK-MEL-28 melanoma): > 100 µM
GI50 (MOLT-4 leukemia): 17.3 µM
TGI (MOLT-4 leukemia): 84.9 µM
GI50 (OVCAR-5 ovarian): 33.6 µM
TGI (OVCAR-5 ovarian): > 100 µM
GI50 (OVCAR-8 ovarian): 35.3 µM
TGI (OVCAR-8 ovarian): > 100 µM
GI50 (SN12C renal): 37.2 µM
TGI (SN12C renal): > 100 µM

CC/C=C\C/C=C\C[C@H](O)C/C=C1/C(=O)C=C[C@@H]1C/C=C\CCCC(=O)OC
GI50 (IGROV1 ovarian): 2.86 µM
TGI (IGROV1 ovarian): 7.86 µM
GI50 (U251 CNS): 1.45 µM
TGI (U251 CNS): 2.83 µM
GI50 (M14 melanoma): 1.43 µM
TGI (M14 melanoma): 3.53 µM
GI50 (HOP-92 NSCLC): 2.62 µM
TGI (HOP-92 NSCLC): 6.02 µM
GI50 (RXF 393 renal): 1.97 µM
TGI (RXF 393 renal): 3.61 µM
GI50 (SK-MEL-28 melanoma): 1.78 µM
TGI (SK-MEL-28 melanoma): 4 µM
GI50 (MOLT-4 leukemia): 1.2 µM
TGI (MOLT-4 leukemia): 4.41 µM
GI50 (OVCAR-5 ovarian): 2.75 µM
TGI (OVCAR-5 ovarian): 6.94 µM
GI50 (OVCAR-8 ovarian): 0.774 µM
TGI (OVCAR-8 ovarian): 13 µM
GI50 (SN12C renal): 1.9 µM
TGI (SN12C renal): 5.01 µM

COc1ccccc1NC(=O)C(CC(C(=O)Nc1ccccc1OC)/C(C)=N/Nc1ccc([N+](=O)[O-])cc1[N+](=O)[O-])/C(C)=N/Nc1ccc([N+](=O)[O-])cc1[N+](=O)[O-] (stereo not given)
TGI (IGROV1 ovarian): > 100 µM
TGI (U251 CNS): > 100 µM
TGI (M14 melanoma): > 100 µM
TGI (HOP-92 NSCLC): > 100 µM
TGI (RXF 393 renal): > 100 µM
TGI (SK-MEL-28 melanoma): > 100 µM
TGI (MOLT-4 leukemia): > 100 µM
TGI (OVCAR-5 ovarian): > 100 µM
TGI (OVCAR-8 ovarian): > 100 µM
TGI (SN12C renal): > 100 µM

CCCCCCCCCCCCCCCCOC(=O)c1cc(O)cc(C(=O)OCCCCCCCCCCCCCCCC)c1
TGI (IGROV1 ovarian): > 100 µM
TGI (U251 CNS): > 100 µM
TGI (M14 melanoma): > 100 µM
TGI (HOP-92 NSCLC): > 100 µM
TGI (RXF 393 renal): > 100 µM
TGI (SK-MEL-28 melanoma): > 100 µM
TGI (MOLT-4 leukemia): > 100 µM
TGI (OVCAR-5 ovarian): > 100 µM
TGI (OVCAR-8 ovarian): > 100 µM
TGI (SN12C renal): > 100 µM

COc1cnc2cc(C(=O)O)c3ccccc3c2c1
TGI (IGROV1 ovarian): > 100 µM
TGI (U251 CNS): > 100 µM
TGI (M14 melanoma): > 100 µM
TGI (HOP-92 NSCLC): > 100 µM
TGI (RXF 393 renal): > 100 µM
TGI (SK-MEL-28 melanoma): > 100 µM
TGI (MOLT-4 leukemia): > 100 µM
TGI (OVCAR-5 ovarian): > 100 µM
TGI (OVCAR-8 ovarian): > 100 µM
TGI (SN12C renal): > 100 µM

COc1cc(/C=C(\C#N)C(N)=C(C#N)C#N)cc(O)c1O
TGI (IGROV1 ovarian): > 100 µM
TGI (U251 CNS): > 100 µM
TGI (M14 melanoma): > 100 µM
TGI (HOP-92 NSCLC): > 100 µM
TGI (RXF 393 renal): > 100 µM
TGI (SK-MEL-28 melanoma): > 100 µM
TGI (MOLT-4 leukemia): > 100 µM
TGI (OVCAR-5 ovarian): > 100 µM
TGI (OVCAR-8 ovarian): > 100 µM
TGI (SN12C renal): > 100 µM

CC1=C(C(=O)Nc2ccc(Cl)c(Cl)c2)C(c2ccccc2O)NC(=O)N1 (stereo not given)
GI50 (IGROV1 ovarian): > 50 µM
TGI (IGROV1 ovarian): > 50 µM
GI50 (U251 CNS): > 50 µM
TGI (U251 CNS): > 50 µM
GI50 (M14 melanoma): > 50 µM
TGI (M14 melanoma): > 50 µM
GI50 (HOP-92 NSCLC): > 50 µM
TGI (HOP-92 NSCLC): > 50 µM
GI50 (RXF 393 renal): > 50 µM
TGI (RXF 393 renal): > 50 µM
GI50 (SK-MEL-28 melanoma): > 50 µM
TGI (SK-MEL-28 melanoma): > 50 µM
GI50 (MOLT-4 leukemia): > 50 µM
TGI (MOLT-4 leukemia): > 50 µM
GI50 (OVCAR-5 ovarian): > 50 µM
TGI (OVCAR-5 ovarian): > 50 µM
GI50 (OVCAR-8 ovarian): 24.8 µM
TGI (OVCAR-8 ovarian): > 50 µM
GI50 (SN12C renal): 34.6 µM
TGI (SN12C renal): > 50 µM

CC1(C)OC2C(COS(N)(=O)=O)SC(n3cnc4cncnc43)C2O1 (stereo not given)
GI50 (IGROV1 ovarian): > 100 µM
TGI (IGROV1 ovarian): > 100 µM
GI50 (U251 CNS): > 100 µM
TGI (U251 CNS): > 100 µM
GI50 (M14 melanoma): > 100 µM
TGI (M14 melanoma): > 100 µM
GI50 (HOP-92 NSCLC): > 100 µM
TGI (HOP-92 NSCLC): > 100 µM
GI50 (RXF 393 renal): > 100 µM
TGI (RXF 393 renal): > 100 µM
GI50 (SK-MEL-28 melanoma): > 100 µM
TGI (SK-MEL-28 melanoma): > 100 µM
GI50 (MOLT-4 leukemia): > 100 µM
TGI (MOLT-4 leukemia): > 100 µM
GI50 (OVCAR-5 ovarian): > 100 µM
TGI (OVCAR-5 ovarian): > 100 µM
GI50 (OVCAR-8 ovarian): > 100 µM
TGI (OVCAR-8 ovarian): > 100 µM
GI50 (SN12C renal): > 100 µM
TGI (SN12C renal): > 100 µM

N#CC1C=Cc2ccccc2N1C(=O)Oc1ccccc1 (stereo not given)
TGI (IGROV1 ovarian): > 100 µM
TGI (U251 CNS): > 100 µM
TGI (M14 melanoma): > 100 µM
TGI (HOP-92 NSCLC): > 100 µM
TGI (RXF 393 renal): > 100 µM
TGI (SK-MEL-28 melanoma): > 100 µM
TGI (MOLT-4 leukemia): 93.8 µM
TGI (OVCAR-5 ovarian): > 100 µM
TGI (OVCAR-8 ovarian): > 100 µM
TGI (SN12C renal): > 100 µM

CC(C)C(=O)Oc1cc2c(=O)oc3c(OC(=O)C(C)C)c(OC(=O)C(C)C)cc4c(=O)oc(c1OC(=O)C(C)C)c2c34
TGI (IGROV1 ovarian): > 100 µM
TGI (U251 CNS): > 100 µM
TGI (M14 melanoma): > 100 µM
TGI (HOP-92 NSCLC): > 100 µM
TGI (RXF 393 renal): > 100 µM
TGI (SK-MEL-28 melanoma): > 100 µM
TGI (MOLT-4 leukemia): > 100 µM
TGI (OVCAR-5 ovarian): > 100 µM
TGI (OVCAR-8 ovarian): > 100 µM
TGI (SN12C renal): > 100 µM

Oc1[nH]c2cc(Cl)ccc2c1/C=c1/ccc2c(c1)N=C(c1cc(F)cc(F)c1)N=2
GI50 (IGROV1 ovarian): 3.29 µM
TGI (IGROV1 ovarian): 17.9 µM
GI50 (U251 CNS): 1.06 µM
TGI (U251 CNS): 2.89 µM
GI50 (M14 melanoma): 1.52 µM
TGI (M14 melanoma): 3.69 µM
GI50 (HOP-92 NSCLC): 0.741 µM
TGI (HOP-92 NSCLC): 8.16 µM
GI50 (RXF 393 renal): 2.08 µM
TGI (RXF 393 renal): 6.27 µM
GI50 (SK-MEL-28 melanoma): 2.78 µM
TGI (SK-MEL-28 melanoma): 13.6 µM
GI50 (MOLT-4 leukemia): 1.45 µM
TGI (MOLT-4 leukemia): 5.72 µM
GI50 (OVCAR-5 ovarian): 6.34 µM
TGI (OVCAR-5 ovarian): 21.5 µM
GI50 (OVCAR-8 ovarian): 2.92 µM
TGI (OVCAR-8 ovarian): 10.3 µM
GI50 (SN12C renal): 3.89 µM
TGI (SN12C renal): 16.5 µM

Cc1nc(-n2nc(-c3ccccc3)cc2-c2ccccc2)sc1C(/C=C/c1ccc([N+](=O)[O-])cc1)=N/NC(=O)c1ccncc1
TGI (IGROV1 ovarian): > 100 µM
TGI (U251 CNS): > 100 µM
TGI (M14 melanoma): 50.7 µM
TGI (HOP-92 NSCLC): 54.8 µM
TGI (RXF 393 renal): 76.6 µM
TGI (SK-MEL-28 melanoma): 99.2 µM
TGI (MOLT-4 leukemia): 43.4 µM
TGI (OVCAR-5 ovarian): > 100 µM
TGI (OVCAR-8 ovarian): > 100 µM
TGI (SN12C renal): > 100 µM

Oc1ccc(Cl)cc1Cc1cc(Cl)ccc1O
GI50 (IGROV1 ovarian): 3.34 µM
TGI (IGROV1 ovarian): 12.5 µM
GI50 (U251 CNS): 2.32 µM
TGI (U251 CNS): 11.6 µM
GI50 (M14 melanoma): 3.31 µM
TGI (M14 melanoma): 10.5 µM
GI50 (HOP-92 NSCLC): 0.801 µM
TGI (HOP-92 NSCLC): 3.58 µM
GI50 (RXF 393 renal): 2.38 µM
TGI (RXF 393 renal): 8.04 µM
GI50 (SK-MEL-28 melanoma): 3.52 µM
TGI (SK-MEL-28 melanoma): 12.6 µM
GI50 (MOLT-4 leukemia): 2.86 µM
TGI (MOLT-4 leukemia): 8.83 µM
GI50 (OVCAR-5 ovarian): 4.79 µM
TGI (OVCAR-5 ovarian): 19.6 µM
GI50 (OVCAR-8 ovarian): 2.63 µM
TGI (OVCAR-8 ovarian): 8.97 µM
GI50 (SN12C renal): 2.8 µM
TGI (SN12C renal): 10.7 µM
